ChEMBL document CHEMBL1201862, “PubChem BioAssay data set” (2004)
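Dose response: 5 concentrations. Exposure: 48 h. Format: 96-well plates. Endpoint: linear interpolation; highest concentration if not reached. Here, GI50 denotes the concentration required for 50% inhibition of growth.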 The source made the active and inactive calls. Cut-off read from the data, not from the text of the source: active = GI50 up to about 1.1 µM and inactive = higher.

Assays:
Test in all cases: NCI tumour cell line growth inhibition, 48 h
SF-268 = system: SF-268
COLO 205 = system: COLO 205
UACC-257 = system: UACC-257
NCI-H460 = system: NCI-H460
UACC-62 = system: UACC-62
IGROV-1 = system: IGROV-1
UO-31 = system: UO-31
CCRF-CEM = system: CCRF-CEM
A498 = system: A498
SK-MEL-28 = system: SK-MEL-28
T47D = system: T47D
Hs-578T = system: Hs-578T
SR = system: SR
A549 = system: A549
EKVX = system: EKVX
HT-29 = system: HT-29
LOX IMVI = system: LOX IMVI
OVCAR-8 = system: OVCAR-8
SK-MEL-2 = system: SK-MEL-2
RXF 393 = system: RXF 393

Row | Structure (SMILES) | GI50 (SF-268) | GI50 (COLO 205) | GI50 (UACC-257) | GI50 (NCI-H460) | GI50 (UACC-62) | GI50 (IGROV-1) | GI50 (UO-31) | GI50 (CCRF-CEM) | GI50 (A498) | GI50 (SK-MEL-28) | GI50 (T47D) | GI50 (Hs-578T) | GI50 (SR) | GI50 (A549) | GI50 (EKVX) | GI50 (HT-29) | GI50 (LOX IMVI) | GI50 (OVCAR-8) | GI50 (SK-MEL-2) | GI50 (RXF 393)
1 | CC(C)=CCC[C@@H](C)C1=C(Nc2ccccc2)C(=O)C(C)=C(O)C1=O | 1.73 µM (inactive) | 2.74 µM (inactive) | 5.53 µM (inactive) | 1.63 µM (inactive) | 4.03 µM (inactive) | 3.01 µM (inactive) | 3.77 µM (inactive) | 0.239 µM (active) | 3.34 µM (inactive) | 8.02 µM (inactive) | 6.7 µM (inactive) | 2.34 µM (inactive) | 0.631 µM (active) | 2.56 µM (inactive) | 3.86 µM (inactive) | 4.16 µM (inactive) | 3.92 µM (inactive) | 2.1 µM (inactive) | 2.52 µM (inactive) | 3.78 µM (inactive)
2 | CCNCCCCNCCCCNCCCCNCCCCNCC | 48.8 µM (inactive) | 43.8 µM (inactive) | 40.1 µM (inactive) | 32 µM (inactive) | 14.4 µM (inactive) | 41.9 µM (inactive) | 53.6 µM (inactive) | 63.5 µM (inactive) | > 94.2 µM (inactive) | 9.14 µM (inactive) | 6.17 µM (inactive) | 2.84 µM (inactive) | 56.4 µM (inactive) | 20.7 µM (inactive) | 53.5 µM (inactive) | 18.6 µM (inactive) | 32 µM (inactive) | > 100 µM (inactive) | 48.1 µM (inactive) | 27.7 µM (inactive)
3 | COc1ccc(N2C(=O)C3c4[nH]c5ccc([N+](=O)[O-])cc5c4C4CCC(C(C)(C)C)CC4C3C2=O)cc1 (centres undefined) | 10.1 µM (inactive) | 4.82 µM (inactive) | 35.2 µM (inactive) | 2.15 µM (inactive) | 24 µM (inactive) | 7.66 µM (inactive) | 16.3 µM (inactive) | 4.51 µM (inactive) | 2.26 µM (inactive) | 61.7 µM (inactive) | 27.5 µM (inactive) | 25.4 µM (inactive) | 3.72 µM (inactive) | 6.28 µM (inactive) | 15.5 µM (inactive) | 3.96 µM (inactive) | 15.2 µM (inactive) | 23.6 µM (inactive) | 26.1 µM (inactive) | 3.33 µM (inactive)
4 | NC(=O)NC(=O)c1cccc(NC(=O)CCl)c1 | 1.91 µM (inactive) | 0.394 µM (active) | 1.19 µM (inactive) | 1.5 µM (inactive) | 0.687 µM (active) | 2.79 µM (inactive) | 0.168 µM (active) | 0.855 µM (active) | 2.55 µM (inactive) | 7 µM (inactive) | 2.18 µM (inactive) | 3.9 µM (inactive) | 0.124 µM (active) | – | 7.01 µM (inactive) | 0.883 µM (active) | 0.465 µM (active) | 2.22 µM (inactive) | 2.38 µM (inactive) | 1.04 µM (active)
5 | CC1=NN(c2ccccc2)C2(C1)C(Cl)C(=O)N2c1nc2ccccc2s1 (centres undefined) | 29.9 µM (inactive) | 27.3 µM (inactive) | 80.2 µM (inactive) | 31 µM (inactive) | 34.4 µM (inactive) | 16.6 µM (inactive) | 26.6 µM (inactive) | 14.9 µM (inactive) | 53 µM (inactive) | 36.6 µM (inactive) | 31.5 µM (inactive) | 50.5 µM (inactive) | 22.9 µM (inactive) | 35.2 µM (inactive) | 30.6 µM (inactive) | 34.9 µM (inactive) | 13.5 µM (inactive) | 36.1 µM (inactive) | 23.8 µM (inactive) | 23.8 µM (inactive)
6 | CC1=C(C(=O)OC23CC4CC(CC(C4)C2)C3)C(c2ccccc2OC(F)F)C(C(=O)OC23CC4CC(CC(C4)C2)C3)=C(C)N1 (centres undefined) | > 100 µM (inactive) | > 100 µM (inactive) | > 100 µM (inactive) | > 100 µM (inactive) | > 100 µM (inactive) | > 100 µM (inactive) | > 100 µM (inactive) | > 100 µM (inactive) | > 100 µM (inactive) | > 100 µM (inactive) | > 100 µM (inactive) | 68.2 µM (inactive) | > 100 µM (inactive) | > 100 µM (inactive) | > 10 µM (inactive) | > 100 µM (inactive) | > 100 µM (inactive) | > 100 µM (inactive) | > 100 µM (inactive) | > 100 µM (inactive)
7 | C=CCN1C(=O)CC2[C@@H]3CCc4cc(O)ccc4C3CC[C@]2(C)C1=O (some centres undefined) | > 10 µM (inactive) | > 10 µM (inactive) | > 10 µM (inactive) | > 10 µM (inactive) | > 10 µM (inactive) | > 10 µM (inactive) | > 10 µM (inactive) | > 10 µM (inactive) | > 10 µM (inactive) | > 10 µM (inactive) | > 10 µM (inactive) | > 10 µM (inactive) | > 10 µM (inactive) | > 10 µM (inactive) | > 10 µM (inactive) | > 10 µM (inactive) | > 10 µM (inactive) | > 10 µM (inactive) | > 10 µM (inactive) | > 10 µM (inactive)
8 | NNC1=NC(=O)NC(=O)C1 | > 100 µM (inactive) | > 100 µM (inactive) | > 100 µM (inactive) | > 100 µM (inactive) | > 100 µM (inactive) | > 100 µM (inactive) | > 100 µM (inactive) | 68.1 µM (inactive) | > 100 µM (inactive) | > 100 µM (inactive) | > 100 µM (inactive) | > 100 µM (inactive) | > 100 µM (inactive) | > 100 µM (inactive) | > 100 µM (inactive) | > 100 µM (inactive) | > 100 µM (inactive) | > 100 µM (inactive) | > 100 µM (inactive) | > 100 µM (inactive)
9 | C=CCC1(OC(C)=O)C2OC(=O)C1(O)OCC2O (centres undefined) | > 100 µM (inactive) | > 100 µM (inactive) | > 100 µM (inactive) | > 100 µM (inactive) | > 59.3 µM (inactive) | > 100 µM (inactive) | > 100 µM (inactive) | > 100 µM (inactive) | > 100 µM (inactive) | > 100 µM (inactive) | > 100 µM (inactive) | > 100 µM (inactive) | > 100 µM (inactive) | > 100 µM (inactive) | > 100 µM (inactive) | > 100 µM (inactive) | > 100 µM (inactive) | > 100 µM (inactive) | > 100 µM (inactive) | > 100 µM (inactive)
10 | Cc1cccc2c1C(=O)C(C1OC(=O)c3ccccc31)C2 (centres undefined) | 79.6 µM (inactive) | > 100 µM (inactive) | > 100 µM (inactive) | > 100 µM (inactive) | 45.7 µM (inactive) | > 100 µM (inactive) | > 100 µM (inactive) | > 100 µM (inactive) | > 100 µM (inactive) | > 100 µM (inactive) | > 100 µM (inactive) | 43.9 µM (inactive) | > 100 µM (inactive) | > 100 µM (inactive) | > 100 µM (inactive) | > 100 µM (inactive) | > 100 µM (inactive) | > 100 µM (inactive) | > 100 µM (inactive) | 45.6 µM (inactive)
11 | CC1OC(OC2C[C@](O)(C(=O)CBr)Cc3c(O)c4c(c(O)c32)C(=O)c2ccccc2C4=O)C(F)C(O)C1O (some centres undefined) | 13.5 µM (inactive) | 9.73 µM (inactive) | 13.3 µM (inactive) | 0.783 µM (active) | 10.8 µM (inactive) | 7.89 µM (inactive) | 1.22 µM (inactive) | 0.776 µM (active) | 11.8 µM (inactive) | 23.8 µM (inactive) | 5.35 µM (inactive) | 30 µM (inactive) | 0.426 µM (active) | 4.67 µM (inactive) | 46.6 µM (inactive) | 12.1 µM (inactive) | 10 µM (inactive) | 16.1 µM (inactive) | 29.6 µM (inactive) | 18.5 µM (inactive)
12 | O=C(O)c1c(-c2c3ccc(=O)cc-3oc3cc(O)ccc23)cc2ccccc2c1-c1ccccc1 | > 100 µM (inactive) | > 100 µM (inactive) | > 100 µM (inactive) | > 66.4 µM (inactive) | > 100 µM (inactive) | > 100 µM (inactive) | > 100 µM (inactive) | > 20.6 µM (inactive) | > 100 µM (inactive) | > 100 µM (inactive) | > 93.1 µM (inactive) | > 100 µM (inactive) | > 100 µM (inactive) | > 100 µM (inactive) | > 100 µM (inactive) | > 100 µM (inactive) | > 100 µM (inactive) | > 100 µM (inactive) | > 100 µM (inactive) | > 100 µM (inactive)
13 | O=C(NC(Nc1ccc(F)cc1)(C(F)(F)F)C(F)(F)F)C(C(F)(F)F)C(F)(F)F | 49.8 µM (inactive) | 6.65 µM (inactive) | 3.3 µM (inactive) | 7.98 µM (inactive) | 0.199 µM (active) | 7.62 µM (inactive) | 2.39 µM (inactive) | 3.13 µM (inactive) | 62.2 µM (inactive) | 17.5 µM (inactive) | 3.15 µM (inactive) | 20.4 µM (inactive) | 18.6 µM (inactive) | 5.53 µM (inactive) | 24.7 µM (inactive) | 15.5 µM (inactive) | 0.617 µM (active) | 3.18 µM (inactive) | 3.63 µM (inactive) | 33.3 µM (inactive)
14 | CCCCCCCCCCCCCCCCCc1cccc(OCOCCOC)c1C(=O)O | 17.2 µM (inactive) | 20.6 µM (inactive) | 20.5 µM (inactive) | 21.5 µM (inactive) | 17.7 µM (inactive) | 16.9 µM (inactive) | 17 µM (inactive) | 26.7 µM (inactive) | 17.8 µM (inactive) | 20.1 µM (inactive) | 16.5 µM (inactive) | 18.6 µM (inactive) | 25.4 µM (inactive) | 18.7 µM (inactive) | 18.9 µM (inactive) | 17.1 µM (inactive) | 24.6 µM (inactive) | 16.4 µM (inactive) | 19.5 µM (inactive) | 17.9 µM (inactive)
